The structures appear in SMILES notation.

For this assay, the system named is CD3 positive T-cells in rabbit tonsils. Nature of the assay: percentage of CD3 positive T-cells in rabbit tonsils injected with mometasone versus control (FIG. 11). The class given is in vivo. An excerpt: FIG. 11 includes a graph illustrating a percentage of cluster-of-differentiation-3 (CD3) T-cell co-receptors in a rabbit when treated with mometasone versus a control. Referring now to FIG. 11, a graph is shown illustrating a percentage of cluster-of-differentiation-3 (CD3) T-cell co-receptors in a rabbit when treated with mometasone versus a control. In immunology, the CD3 T-cell co-receptor helps to activate both the cytotoxic T-Cell (CD8+ naive T cells) and also T helper cells (CD4+ naive T cells). CD3 consists of a protein complex and is composed of four distinct chains.

As for `C[C@@H]1C[C@H]2[C@@H]3CCC4=CC(=O)C=C[C@]4(C)[C@@]3(Cl)[C@@H](O)C[C@]2(C)[C@@]1(O)C(=O)CCl` [mometasone], the “CD3 positive T-cells (percentage)” value was “significantly lower”.

(Values after patent publication US20200008825A1, “SUSTAINED INTRATONSILLAR DRUG DELIVERY WITH NEEDLE ARRAY” (SOUTHERN RESEARCH INSTITUTE, priority 2017, published 2020).)
